Laboratory results: paper PMC9963013 (Proceedings of the National Academy of Sciences of the …, 2023)

Target: AtSFH5-Sec14 (Arabidopsis thaliana, UniProt Q8GXC6)
Assay: X-ray crystal structure, […] Å
Format: binding
Conditions: central cavity; acyl chains switched relative to L-α-PA complex

Sequence of AtSFH5-Sec14 (Q8GXC6 76-365): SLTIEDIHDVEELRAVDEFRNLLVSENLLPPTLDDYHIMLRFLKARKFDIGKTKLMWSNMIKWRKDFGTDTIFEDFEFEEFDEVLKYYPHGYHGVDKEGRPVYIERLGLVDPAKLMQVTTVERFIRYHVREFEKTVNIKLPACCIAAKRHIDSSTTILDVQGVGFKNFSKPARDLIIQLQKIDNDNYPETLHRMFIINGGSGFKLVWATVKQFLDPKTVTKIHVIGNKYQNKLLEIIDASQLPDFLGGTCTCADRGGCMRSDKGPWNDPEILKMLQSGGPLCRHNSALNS

## CCCCCCCCCCCCCCCC(=O)OC[C@H](COP(=O)(O)O)OC(=O)CCCCCCCCCCCCCCC [DPPA, 1,2-dipalmitoyl-sn-glycero-3-phosphate]
  X-ray crystal structure, 2.1 Å: 7Y10 for AtSFH5-Sec14 in complex with DPPA
